Results published in US11679111B2, “Fatty acid synthase inhibitors” (priority 2016, dated 2023).
Read-outs that look alike come from different tables or passages of the source.

Assays:
FASN = biological target: T1, FASN (Sus scrofa, UniProt A5YV76); assay: FLECS screen, elution of fluorescein labeled proteins from Cibacron blue resin; assay type: binding, porcine; conditions: SDS-PAGE and mass spectrometry
T1 construct: from tissue; host or cells: lactating porcine mammary gland extract
Text: To specifically identify inhibitors of FASN targeting its nucleotide binding pockets Cibacron blue Sepharose was utilized. This medium has been used previously to purify NAD and NADP binding proteins from crude tissues extracts (Miyaguchi et al., 2011; Muratsubaki et al., 1994). FASN enriched extract from lactating pig mammary gland was bound to the resin and labeled with cysteine reactive fluorescein. […] One hundred and fifty-five of the molecules selectively eluted FASN from the resin, and 20 potential lead compounds were progressed according to their FASN selectivity (assessed with SDS-PAGE, silver staining and mass spectrometry). These twenty compounds were reduced to 13 based on the absence of any obvious chemical liabilities. Next, the molecules were tested for their ability to inhibit FASN activity in a HepG2 cell based assay that measured the incorporation of ^3H glucose into lipids (FIG. 1B and FIG. 9).
Porcine mammary glands were collected from lactating pigs as previously described (Hughes et al., 2012). Tissues were homogenized in lysis buffer A (100 mM sodium fluoride, 5 mM EDTA, 1 mM DTT and 5% glycerol made in 10 mM sodium phosphate buffer pH 7.5) in a ratio of 3 ml of buffer per each gram of tissue. […] Fluorescence in each well was measured at Ex/Em: 485/535 nm. […]

[1] = tested on: MCF7, MDA-MB-468, BT474 and SKBR3 cells; assay: Proliferation assay (Hoechst DNA content), aggressive breast cancer cell lines; assay type: cell-based; conditions: MCF7, MDA-MB-468, BT474, SKBR3
Method: MCF10A (5,000 cells/well), MCF7 (7,500 cells/well), MDA-MB-468 (5,000 cells/well), BT474 (7,500 cells/well), and SKBR3 (5,000 cells/well) were seeded in 96 well plates with 10% FBS 4 g/L glucose DMEM media except for MCF10A which was DMEM/F12 media. After 24 hours, cells were treated with different concentration of HS-106 or C75. Every 24 hours for five days, media from one of the plates was removed and plate was frozen at −80° C. After collecting all the time points, to each well 100 μl ddH2O was add and the plates were frozen again. Then 100 μI of Hoechst 33258 solution made in TNE buffer (1 μl from Hoechst stock (1 mg/ml in 1:4 DMSO:H20) in 1 ml of TNE (which contains 10 mM Tris, 2M NaCl and 1 mM Na2EDTA) and fluorescence was measured at Ex/Em: 355/460.

[2] = Method: To test if HS-106 is toxic to mice, two animal studies were initiated. In an acute toxicity study, mice received 80, 20, or 5 mg/kg HS-106 IP on day 1 and 3, and blood was collected on day 4.
In an acute toxicity study, FVB/J mice received 10, 40, or 160 pmol/kg HS-106 via intraperitoneal injection (IP) on days 1 and 3, and blood was collected on day 4. […] To test for the long term effects of HS-106, mice received biweekly IP injections of 10, 20, or 30 pmol/kg HS-106 for eight weeks. […] Next, we carried out pharmacokinetic (PK) studies to determine the uptake and bio-distribution of HS-106 in MMTV-Neu mice by LC-MS (FIG. 17).
Female FVB/J mice aged to 10-12 weeks (Jackson Labs, Maine) were intraperitonealy injected with HS-106 at the described doses twice weekly. Mice were monitored for signs of toxicity by standard Mouse Phase 1 Unit (MP1U; https://www.med.unc.edu/mousephase1) protocols and approved by UNC—CH IACUC. Prior to end of the study 150 μl of whole blood was drawn via submandibular bleed and used to determine hematology values, liver, and kidney functions. To determine the long term effects of HS-106 on mice weight, female FVB/J mice aged 12-16 weeks were treated with the indicated concentrations of HS-106 twice weekly by intraperitoneal injection for 60 days. Mice body mass was assessed weekly and were observed every day for signs of toxicity such as labored breathing and hunched posture.
Female FVB/J mice aged to 10-12 weeks (Jackson Labs, Maine) were intraperitonealy (IP) injected twice weekly with HS-106 at the described doses. Mice were monitored for signs of toxicity by standard Mouse Phase 1 Unit (M1P1U; https://www.med.unc.edu/mousephase1) protocols and approved by UNC—CH IACUC. Prior to end of the study 150 μl of whole blood was drawn via submandibular bleed and used to determine hematology values, liver, and kidney functions by HemaTrue Hematology Analyzer (HESKA, Loveland, Colo., USA) and VITROS® 350 Chemistry System (J&J, New Brunswick, N.J.) according to manufacturer protocols. To determine the long term effects of HS-106 on mice weight, female FVB/J mice aged 12-16 weeks were treated with the indicated concentrations of HS-106 twice weekly by IP injection for 60 days. Mice body mass was assessed weekly, and mice were observed daily for signs of toxicity (e.g. labored breathing and hunched posture).

[3] = 15 mg/kg IP

T1 sequence (A5YV76 entry or part of it): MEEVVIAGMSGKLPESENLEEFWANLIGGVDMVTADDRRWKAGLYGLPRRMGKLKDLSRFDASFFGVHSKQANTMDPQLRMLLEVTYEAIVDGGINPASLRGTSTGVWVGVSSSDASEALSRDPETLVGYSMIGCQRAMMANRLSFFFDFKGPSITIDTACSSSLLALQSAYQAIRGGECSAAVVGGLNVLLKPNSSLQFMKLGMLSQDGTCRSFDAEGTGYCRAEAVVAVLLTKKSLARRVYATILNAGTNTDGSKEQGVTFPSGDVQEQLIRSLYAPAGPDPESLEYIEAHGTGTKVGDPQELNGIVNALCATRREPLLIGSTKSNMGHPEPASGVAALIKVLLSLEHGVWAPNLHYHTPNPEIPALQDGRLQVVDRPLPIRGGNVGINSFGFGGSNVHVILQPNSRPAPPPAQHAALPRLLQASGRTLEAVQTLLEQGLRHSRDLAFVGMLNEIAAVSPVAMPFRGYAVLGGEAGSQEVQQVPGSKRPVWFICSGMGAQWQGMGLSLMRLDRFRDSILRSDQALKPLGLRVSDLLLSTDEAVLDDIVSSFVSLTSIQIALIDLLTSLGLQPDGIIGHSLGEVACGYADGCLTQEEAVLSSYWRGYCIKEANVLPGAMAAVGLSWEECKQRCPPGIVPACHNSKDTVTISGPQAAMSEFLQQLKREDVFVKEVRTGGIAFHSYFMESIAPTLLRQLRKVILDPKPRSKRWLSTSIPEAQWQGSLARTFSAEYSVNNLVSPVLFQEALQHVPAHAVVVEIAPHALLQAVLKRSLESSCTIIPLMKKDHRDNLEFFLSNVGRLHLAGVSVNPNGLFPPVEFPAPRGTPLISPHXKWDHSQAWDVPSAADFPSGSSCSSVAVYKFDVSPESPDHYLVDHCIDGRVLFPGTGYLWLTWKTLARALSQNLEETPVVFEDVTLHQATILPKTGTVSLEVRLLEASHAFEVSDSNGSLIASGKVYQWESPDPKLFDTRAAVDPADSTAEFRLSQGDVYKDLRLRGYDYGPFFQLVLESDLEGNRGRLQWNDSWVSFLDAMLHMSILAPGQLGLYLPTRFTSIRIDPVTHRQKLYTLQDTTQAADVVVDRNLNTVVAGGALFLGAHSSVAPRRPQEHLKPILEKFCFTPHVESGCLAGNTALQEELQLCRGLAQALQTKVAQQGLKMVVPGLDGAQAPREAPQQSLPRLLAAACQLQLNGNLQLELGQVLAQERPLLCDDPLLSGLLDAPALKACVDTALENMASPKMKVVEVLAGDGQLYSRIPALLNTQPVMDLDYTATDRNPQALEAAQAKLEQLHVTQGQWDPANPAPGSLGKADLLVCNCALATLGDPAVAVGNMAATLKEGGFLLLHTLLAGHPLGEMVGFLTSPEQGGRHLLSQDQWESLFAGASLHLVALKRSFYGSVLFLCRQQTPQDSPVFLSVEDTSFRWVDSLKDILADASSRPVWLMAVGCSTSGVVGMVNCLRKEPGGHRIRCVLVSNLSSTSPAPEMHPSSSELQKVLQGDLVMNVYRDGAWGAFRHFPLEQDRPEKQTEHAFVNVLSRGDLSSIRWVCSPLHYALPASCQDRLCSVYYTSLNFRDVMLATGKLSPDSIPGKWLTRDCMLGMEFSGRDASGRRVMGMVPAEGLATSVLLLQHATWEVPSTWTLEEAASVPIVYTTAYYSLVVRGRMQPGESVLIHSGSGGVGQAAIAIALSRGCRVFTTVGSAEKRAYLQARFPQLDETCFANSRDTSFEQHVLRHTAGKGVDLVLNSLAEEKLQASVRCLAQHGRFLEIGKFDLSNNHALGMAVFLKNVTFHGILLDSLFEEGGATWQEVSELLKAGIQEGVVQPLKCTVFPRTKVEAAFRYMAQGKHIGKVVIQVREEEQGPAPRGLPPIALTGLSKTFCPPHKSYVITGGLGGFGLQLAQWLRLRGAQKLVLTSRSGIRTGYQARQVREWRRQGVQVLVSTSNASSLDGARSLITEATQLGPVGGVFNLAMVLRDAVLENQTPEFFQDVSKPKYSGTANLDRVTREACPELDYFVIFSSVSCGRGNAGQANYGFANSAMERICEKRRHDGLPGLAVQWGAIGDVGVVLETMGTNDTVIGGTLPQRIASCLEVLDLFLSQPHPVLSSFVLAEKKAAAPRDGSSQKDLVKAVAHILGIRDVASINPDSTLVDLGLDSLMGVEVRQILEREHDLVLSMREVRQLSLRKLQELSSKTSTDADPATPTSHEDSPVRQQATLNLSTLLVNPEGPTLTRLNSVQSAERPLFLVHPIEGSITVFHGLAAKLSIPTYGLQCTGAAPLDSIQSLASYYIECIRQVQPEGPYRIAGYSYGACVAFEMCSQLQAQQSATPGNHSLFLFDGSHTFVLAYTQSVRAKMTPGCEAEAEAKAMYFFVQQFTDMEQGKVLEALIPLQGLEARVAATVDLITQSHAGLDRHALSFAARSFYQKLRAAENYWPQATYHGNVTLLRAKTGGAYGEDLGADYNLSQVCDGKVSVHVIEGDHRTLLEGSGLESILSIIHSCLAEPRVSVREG
Method for PBMC: Unfixed PBMCs were exposed to drug for 48 hours, and PBMC viability was assessed by flow cytometry using propidium iodine (PI) exclusion (BD Pharmingen) and Annexin V staining (BD Pharmingen). Viable cells are defined as cells that both exclude PI and are Annexin V negative.

Structure (SMILES): Cc1sc2ncnc(NC3CCN(Cc4ccccc4)C3)c2c1C (racemic) [HS-106, N-(1-benzylpyrrolidin-3-yI)-5,6-dimethylthieno[2,3-d]pyrimidin-4-amine]
- elution of FASN from Cibacron blue resin (hit strength / selectivity) (FASN): selectively elutes FASN
- inhibition of proliferation [1]: inhibited the proliferation of aggressive cell lines with similar potency to C75
- acute toxicity ([2]; 160 pmol/kg IP days 1 and 3): toxic
- acute toxicity ([2]; 80 mg/kg IP day 1 and 3): acutely toxic
- acute toxicity, blood parameters ([2]; 5 and 20 mg/kg IP day 1 and 3, blood day 4): did not affect white blood cell count, hemoglobin levels, kidney, or liver function
- acute toxicity, blood parameters ([2]; 10 and 40 pmol/kg IP days 1 and 3, blood day 4): well tolerated with no adverse effects on white blood cell counts, hemoglobin levels, kidney, or liver functions
- weight change ([2]; BIW IP injection, assessed weekly): dose not induce weight change
- effect on PBMC viability (PBMC): negligible effects on cell viability
- time of appearance in plasma after IP injection [3]: ≤ 5 min
